Test results published in paper PMC7031696 (Cell chemical biology, 2019).
pIC50: −log10 of the molar value. Like-named read-outs stand apart in the source and are kept apart here.

How the values were obtained:
[1] = system: Plasmodium falciparum 3D7-A10 parasites; assay: Stage specificity assay (8-h exposure of synchronized stages, IC50^8h); type: cell-based; details: for pIC50: Plasmodium falciparum
[2] = system: asynchronous 3D7-A10 parasite cultures; assay: Standard 72-h exposure asexual blood stage susceptibility assay (IC50^72h); type: cell-based, Plasmodium falciparum; details: Plasmodium falciparum, 3D7, 72 h, read-out: Overall (72hr assay) Mean IC50 (IC50^72h)
[3] = system: 3D7-MR4 trophozoite parasite-infected RBCs; assay: Metabolomic profiling (hydrophilic metabolite changes, UHPLC-MS); type: cell-based, Plasmodium falciparum

## CNc1nc(NCCCN(C)C)c2sc(-c3cccc(C(F)(F)F)c3)cc2n1 [MMV668311]
[1]; 3D7-A10
  Ratio lowest IC50 8hr/IC50 72hr: 1.1
[1]; 3D7, read-out: Early rings Mean IC50 (IC50^8h), 8-h exposure 0–8 hr, 3D7-A10, survival at 60 h
  pIC50: 6.85
[1]; 3D7, read-out: Early trophozoites Mean IC50 (IC50^8h), 8-h exposure 16–24 hr, 3D7-A10, survival at 60 h
  pIC50: 7.16
[1]; 3D7, read-out: Late rings Mean IC50 (IC50^8h), 8-h exposure 8–16 hr, 3D7-A10, survival at 60 h
  pIC50: 7.01
[1]; 3D7, read-out: Late trophozoites Mean IC50 (IC50^8h), 8-h exposure 24–32 hr, 3D7-A10, survival at 60 h
  pIC50: 6.91
[1]; 3D7, read-out: Schizonts Mean IC50 (IC50^8h), 8-h exposure 32–40 hr, 3D7-A10, survival at 60 h
  pIC50: 6.42
[1]; period when the parasite was most susceptible (lowest IC50^8h)
  Stage of peak activity (Figure 6): rings and trophozoites
[2]
  pIC50: 7.20
[3]; 10 × IC50^72h, 2.5 hr, trophozoites
  changes within the set of metabolites detected (low fold change group): did not induce major changes
[3]; metabolite 3-phosphoglycerate, log2 fold change
  Log2(fold changes) 3-phosphoglycerate: 0.1799
[3]; metabolite 4-Pyridoxic acid, log2 fold change
  Log2(fold changes) 4-Pyridoxic acid: 0.0000
[3]; metabolite 4-aminobutyrate, log2 fold change
  Log2(fold changes) 4-aminobutyrate: 0.0013
[3]; metabolite 4-phosphopantetheine, log2 fold change
  Log2(fold changes) 4-phosphopantetheine: 0.0000
[3]; metabolite 4-phosphopantothenate, log2 fold change
  Log2(fold changes) 4-phosphopantothenate: 0.0507
[3]; metabolite 5-aminopentanoic acid, log2 fold change
  Log2(fold changes) 5-aminopentanoic acid: 0.0000
[3]; metabolite 5-methyl-THF, log2 fold change
  Log2(fold changes) 5-methyl-THF: 0.0000
[3]; metabolite 5-phosphoribosyl-1-pyrophosphate, log2 fold change
  Log2(fold changes) 5-phosphoribosyl-1-pyrophosphate: -0.0449
[3]; metabolite 6-phospho-D-gluconate, log2 fold change
  Log2(fold changes) 6-phospho-D-gluconate: 0.0744
[3]; metabolite HVDD
  Log2(fold change) HVDD: 0.6397
[3]; metabolite Hydroxyisocaproic acid
  Log2(fold change) Hydroxyisocaproic acid: 0.0000
[3]; metabolite IDP
  Log2(fold change) IDP: 0.0000
[3]; metabolite IMP
  Log2(fold change) IMP: 0.0136
[3]; metabolite Inositol
  Log2(fold change) Inositol: 0.0000
[3]; metabolite Isopentyl-PP
  Log2(fold change) Isopentyl-PP: 0.0000
[3]; metabolite L-arginino-succinate
  Log2(fold change) L-arginino-succinate: 0.0000
[3]; metabolite LD
  Log2(fold change) LD: 0.0000
[3]; metabolite Myristoyl/tetradecanoyl-CoA
  Log2(fold change) Myristoyl/tetradecanoyl-CoA: 0.0000
[3]; metabolite N-Acetyl-L-alanine
  Log2(fold change) N-Acetyl-L-alanine: 0.2894
[3]; metabolite N-acetyl-L-ornithine
  Log2(fold change) N-acetyl-L-ornithine: 0.9240
[3]; metabolite N-acetyl-glucosamine-1/6-phosphate
  Log2(fold change) N-acetyl-glucosamine-1/6-phosphate: -0.0813
[3]; metabolite N-acetyl-glutamate
  Log2(fold change) N-acetyl-glutamate: 0.1520
[3]; metabolite N-acetyl-glutamine
  Log2(fold change) N-acetyl-glutamine: 0.0000
[3]; metabolite N-carbamoyl-L-aspartate
  Log2(fold change) N-carbamoyl-L-aspartate: 0.0640
[3]; metabolite NAD+
  Log2(fold change) NAD+: 0.0000
[3]; metabolite NADH
  Log2(fold change) NADH: 0.1408
[3]; metabolite NADP+
  Log2(fold change) NADP+: -0.0507
[3]; metabolite NADPH
  Log2(fold change) NADPH: 0.0063
[3]; metabolite O-acetyl-L-serine
  Log2(fold change) O-acetyl-L-serine: 0.0000
[3]; metabolite Octoluse 8/1P
  Log2(fold change) Octoluse 8/1P: 0.0000
[3]; metabolite Octoluse Bisphosphate
  Log2(fold change) Octoluse Bisphosphate: -0.0578
[3]; metabolite PD
  Log2(fold change) PD: -0.3993
[3]; metabolite PE
  Log2(fold change) PE: 0.0346
[3]; metabolite PEE
  Log2(fold change) PEE: 0.4823
[3]; metabolite PEEK
  Log2(fold change) PEEK: 0.0000
[3]; metabolite PVNF
  Log2(fold change) PVNF: 0.0144
[3]; metabolite Pyroglutamic acid
  Log2(fold change) Pyroglutamic acid: 0.0000
[3]; metabolite Pyrophosphate
  Log2(fold change) Pyrophosphate: 0.0000
[3]; metabolite Ribose-5-phosphate
  Log2(fold change) Ribose-5-phosphate: -0.1895
[3]; metabolite S-adenosyl-L-homocysteine
  Log2(fold change) S-adenosyl-L-homocysteine: -0.2447
[3]; metabolite S-adenosyl-L-methioninamine
  Log2(fold change) S-adenosyl-L-methioninamine: 0.0000
[3]; metabolite S-adenosyl-L-methionine
  Log2(fold change) S-adenosyl-L-methionine: 0.0000
[3]; metabolite S-methyl-5'-thioadenosine
  Log2(fold change) S-methyl-5'-thioadenosine: 0.0000
[3]; metabolite SD
  Log2(fold change) SD: 0.2373
[3]; metabolite SDL
  Log2(fold change) SDL: 0.0000
[3]; metabolite SID
  Log2(fold change) SID: 0.1033
[3]; metabolite Sedoheptulose bisphosphate
  Log2(fold change) Sedoheptulose bisphosphate: 0.1946
[3]; metabolite Thiamine pyrophosphate
  Log2(fold change) Thiamine pyrophosphate: 0.0000
[3]; metabolite UDP-D-glucose, log2 fold change
  Log2(fold changes) UDP-D-glucose: 0.0458
[3]; metabolite UDP-D-glucuronate, log2 fold change
  Log2(fold changes) UDP-D-glucuronate: -0.0320
[3]; metabolite UDP-N-acetyl-glucosamine, log2 fold change
  Log2(fold changes) UDP-N-acetyl-glucosamine: -0.0391
[3]; metabolite UDP, log2 fold change
  Log2(fold changes) UDP: -0.7320
[3]; metabolite UMP, log2 fold change
  Log2(fold changes) UMP: -0.3054
[3]; metabolite UTP, log2 fold change
  Log2(fold changes) UTP: 0.0564
[3]; metabolite hydroxyphenylpyruvate
  Log2(fold change) hydroxyphenylpyruvate: 0.0000
[3]; metabolite hydroxyproline/Aminolevulinate
  Log2(fold change) hydroxyproline/Aminolevulinate: 0.0878
[3]; metabolite hypoxanthine
  Log2(fold change) hypoxanthine: 0.2077
[3]; metabolite indole
  Log2(fold change) indole: 0.0000
[3]; metabolite inosine
  Log2(fold change) inosine: 0.0666
[3]; metabolite isoleucine
  Log2(fold change) isoleucine: 0.1965
[3]; metabolite lactate
  Log2(fold change) lactate: 0.0645
[3]; metabolite leucine
  Log2(fold change) leucine: 0.2550
[3]; metabolite lysine
  Log2(fold change) lysine: 0.0000
[3]; metabolite malate
  Log2(fold change) malate: 0.0044
[3]; metabolite maleic acid
  Log2(fold change) maleic acid: -0.0062
[3]; metabolite methionine
  Log2(fold change) methionine: 0.4374
[3]; metabolite myo-inositol
  Log2(fold change) myo-inositol: 0.0000
[3]; metabolite nicotinamide mononucleotide
  Log2(fold change) nicotinamide mononucleotide: 0.0000
[3]; metabolite nicotinate
  Log2(fold change) nicotinate: 0.1094
[3]; metabolite ornithine
  Log2(fold change) ornithine: 0.0000
[3]; metabolite orotate
  Log2(fold change) orotate: -0.2365
[3]; metabolite orotidine-5'-phosphate
  Log2(fold change) orotidine-5'-phosphate: -0.1452
[3]; metabolite oxaloacetate
  Log2(fold change) oxaloacetate: 0.0000
[3]; metabolite p-aminobenzoate
  Log2(fold change) p-aminobenzoate: 0.0000
[3]; metabolite p-hydroxybenzoate
  Log2(fold change) p-hydroxybenzoate: 0.0000
[3]; metabolite pantothenate
  Log2(fold change) pantothenate: -0.0310
[3]; metabolite phenylalanine
  Log2(fold change) phenylalanine: 0.2649
[3]; metabolite phenylpyruvate
  Log2(fold change) phenylpyruvate: 0.0000
[3]; metabolite phosphoenolpyruvate
  Log2(fold change) phosphoenolpyruvate: 0.2026
[3]; metabolite prephenate
  Log2(fold change) prephenate: 0.0000
[3]; metabolite proline
  Log2(fold change) proline: 0.1500
[3]; metabolite pyridoxine
  Log2(fold change) pyridoxine: 0.2387
[3]; metabolite pyruvate
  Log2(fold change) pyruvate: 0.0542
[3]; metabolite riboflavin
  Log2(fold change) riboflavin: 0.0000
[3]; metabolite ribose
  Log2(fold change) ribose: 0.4509
[3]; metabolite ribose-phosphate
  Log2(fold change) ribose-phosphate: -0.2314
[3]; metabolite ribulose-5-phosphate
  Log2(fold change) ribulose-5-phosphate: -0.1585
[3]; metabolite serine
  Log2(fold change) serine: 0.1402
[3]; metabolite sn-glycerol-3-phosphate
  Log2(fold change) sn-glycerol-3-phosphate: 0.1282
[3]; metabolite succinate/Methylmalonic acid
  Log2(fold change) succinate/Methylmalonic acid: 0.1707
[3]; metabolite succinyl-CoA/methylmalonyl-CoA
  Log2(fold change) succinyl-CoA/methylmalonyl-CoA: 0.2947
[3]; metabolite taurine
  Log2(fold change) taurine: 0.0000
[3]; metabolite thiamine
  Log2(fold change) thiamine: 0.0000
[3]; metabolite threonine/homoserine
  Log2(fold change) threonine/homoserine: 0.3600
[3]; metabolite thymidine
  Log2(fold change) thymidine: 0.0000
[3]; metabolite thymine, log2 fold change
  Log2(fold changes) thymine: 0.0000
[3]; metabolite trehalose-6-Phosphate, log2 fold change
  Log2(fold changes) trehalose-6-Phosphate: 0.0000
[3]; metabolite tryptophan, log2 fold change
  Log2(fold changes) tryptophan: 0.2172
[3]; metabolite tyrosine, log2 fold change
  Log2(fold changes) tyrosine: 0.2350
[3]; metabolite uridine, log2 fold change
  Log2(fold changes) uridine: 0.0000
